Experiments:
[1] = system: fMLP-stimulated H2O2 production in human PMN; assay: Adenosine inhibition of fMLP-stimulated H2O2 production in human PMN; assay type: cell-based; details: for IC50: Homo sapiens
human PMN [2] = details: H2O2 production; PMN incubated with mediator for 6 hrs; mean (± S.E.M.)
human PMN [3] = assay: Vitality of human PMN after incubation with inflammatory mediators; assay type: cell-based; details: dead cells after 6 hrs incubation with mediator; mean (± S.E.M.)
[4] = PMN pre-incubated with IFN-γ 6 hrs
[5] = PMN pre-incubated with IL-1 6 hrs
[6] = PMN pre-incubated with IL-8 6 hrs
[7] = PMN pre-incubated with LPS 10 μg/ml 6 hrs
[8] = PMN pre-incubated with TNF-α 6 hrs

`Nc1ncnc2c1ncn2[C@@H]1O[C@H](CO)[C@@H](O)[C@H]1O` [adenosine] showed an IC50 ([1]; 6 h, control (native) PMN, culture medium 6 hrs) of 75 nM, an IC50 [1, 4] of 123 nM and an IC50 [1, 5] of 40 nM. The IC50 [1, 6] was 43 nM, the IC50 [1, 7] was 332 nM and the IC50 [1, 8] was 106 nM. The “concentration reaching maximum inhibition” value ([1]; LPS-incubated PMN) was 10^−5 M, the “increase of the IC50 on the H2O2 production” value ([1]; LPS-treated (6 hrs) versus native human PMN) was 4.4 fold and the “Max. inhibition (6 S.E.M.)” value [1, 4] was 86.8 (± 4.3) %. The “Max. inhibition (6 S.E.M.)” value [1, 5] was 78.6 (± 2.5) %, the “Max. inhibition (6 S.E.M.)” value [1, 6] was 76.3 (± 5.8) % and the “Max. inhibition (6 S.E.M.)” value [1, 7] was 75.2 (± 2.5) %. The “Max. inhibition (6 S.E.M.)” value [1, 8] was 84.8 (± 3.6) %, the “Max. inhibition (6 S.E.M.)” value ([1]; control (native) PMN, culture medium 6 hrs) was 78.8 (± 1.5) % and the “concentration reaching maximum inhibitory effects” value ([1]; untreated neutrophils) was 10^−6 M.

In the case of “IFN-γ: cytokine used for PMN stimulation”, the Spontaneous activity (human PMN [2]) is reported as 36 (± 2.37) MFI.

IL-8: cytokine used for PMN stimulation was tested, and the “PI-positive PMN” value (human PMN [3]) was 1.74 (± 0.36) % and the Spontaneous activity (human PMN [2]) was 30 (± 1.76) MFI.

For TNF-α, the “PI-positive PMN” value (human PMN [3]) was 2.89 (± 0.39) % and the Spontaneous activity (human PMN [2]) was 34 (± 1.51) MFI.

B1: IFN-γ: cytokine used for PMN stimulation (protein, UniProt P01579 24-161, looked up)
Interferon gamma: QDPYVKEAENLKKYFNAGHSDVADNGTLFLGILKNWKEESDRKIMQSQIVSFYFKLFKNFKDDQSIQKSVETIKEDMNVKFFNSNKKKRDDFEKLTNYSVTDLNVQRKAIHELIQVMAELSPAAKTGKRKRSQMLFRG
With B1 the “PI-positive PMN” value (human PMN [3]) was 2.76 (± 0.37) %.
